Experimental data: PMC4767465, “NF-κB drives acquired resistance to a novel mutant-selective EGFR inhibitor” (Oncotarget, 2015)
Where two headings read alike, the source gives them in different places. Blank lines part the entries; values can stand above or below the molecule they belong to.

How the values were obtained:
WT-EGFR = WT-EGFR (Homo sapiens, UniProt P00533); experiment: radiometric HotSpot recombinant kinase assay, […] compound, […] ATP; format: biochemical
Chk2 = molecular target: T1, Chk2 (Homo sapiens, UniProt O96017); experiment: as above; format: biochemical
T1 construct: gene CHEK2

EGFR [1] = molecular target: EGFR (Homo sapiens, UniProt P00533, DEL746-750); experiment: EGFR phosphorylation in PC9 and HCC-827 cells, […] h treatment; format: cell-based
EGFR [2] = molecular target: EGFR (Homo sapiens, UniProt P00533, T790M); experiment: EGFR phosphorylation in transfected […] cells; format: cell-based
EGFR-L858R/T790M = EGFR-L858R/T790M (Homo sapiens, UniProt P00533, L858R/T790M); experiment: radiometric HotSpot recombinant kinase assay, […] compound, […] ATP; about […] inhibition; format: biochemical
EGFR [3] = molecular target: EGFR (Homo sapiens, UniProt P00533, DEL746-750/T790M); experiment: EGFR phosphorylation in PC9GR4 cells, […] h treatment; format: cell-based
A549 = experiment: cells; parameters: anti-proliferative effect in NSCLC cell lines, 50% growth inhibition concentration (GI50); conditions: Homo sapiens, A549
From the text: (§1) The exceptional activity of the inhibitor in EGFR-T790M cells was further confirmed in three-dimensional tumor spheroids derived from NCI-H1975 cells. […] Furthermore, increase of cellular fragments in Sub-G1 phase, chromatin condensation and nuclear fragmentation were observed after treatment with the EGFR-TKI (Supplementary Figure 3A). […] The human NSCLC cell lines A549, Calu-1, Calu-6, NCI-H460, NCI-H292, NCI-H1299, NCI-H1730, NCI-H23, NCI-H3255, NCI-H520, NCI-H522, NCI-H596, HCC-827, SKMES-1, SW1573 and NCI-H1975 and the human epidermoid carcinoma A431 cells were purchased from ATCC (Manassas, VA), and cultured as recommended. 293H cells were purchased from Invitrogen (Carlsbad, CA). PC9, PC9GR4, PC9DR1 and HCC-827 GR5 were a kind gift of Dr. Pasi A. Jänne, Harvard University, Boston, MA [13]. PC9/ER, HCC-827/R1 and H3255/XLR cells are isogenic erlotinib- or XL-647-resistant lines derived from PC9, HCC-827 and NCI-H3255 cells, respectively, as previously described. Additional information on cell cultures procedures is reported in the Supplemental Methods.

Calu-1 = experiment: cells; parameters: anti-proliferative effect in NSCLC cell lines, 50% growth inhibition concentration (GI50); conditions: Homo sapiens, Calu-1
From the text: as §1

Calu-6 = experiment: cells; parameters: anti-proliferative effect in NSCLC cell lines, 50% growth inhibition concentration (GI50); conditions: Homo sapiens, Calu-6; read-out: CNX-2006 GI50
From the text: as §1

HCC-827 = experiment: cells; parameters: anti-proliferative effect in NSCLC cell lines, 50% growth inhibition concentration (GI50); conditions: Homo sapiens, HCC827
From the text: as §1

NCI-H1299 = experiment: cells; parameters: anti-proliferative effect in NSCLC cell lines, 50% growth inhibition concentration (GI50); conditions: Homo sapiens, NCI-H1299; read-out: CNX-2006 GI50
From the text: as §1

NCI-H1703 = experiment: cells; parameters: anti-proliferative effect in NSCLC cell lines, 50% growth inhibition concentration (GI50); conditions: Homo sapiens, NCI-H1703; read-out: CNX-2006 GI50
From the text: as §1

NCI-H1975 = experiment: cells; parameters: anti-proliferative effect in NSCLC cell lines, 50% growth inhibition concentration (GI50); conditions: Homo sapiens, NCI-H1975; read-out: CNX-2006 GI50
From the text: as §1

NCI-H23 = experiment: cells; parameters: anti-proliferative effect in NSCLC cell lines, 50% growth inhibition concentration (GI50); conditions: Homo sapiens, NCI-H23; read-out: CNX-2006 GI50
From the text: as §1

NCI-H292 = experiment: cells; parameters: anti-proliferative effect in NSCLC cell lines, 50% growth inhibition concentration (GI50); conditions: Homo sapiens, NCI-H292; read-out: CNX-2006 GI50
From the text: as §1

NCI-H3255 = experiment: cells; parameters: anti-proliferative effect in NSCLC cell lines, 50% growth inhibition concentration (GI50); conditions: Homo sapiens, NCI-H3255
From the text: as §1

NCI-H460 = experiment: cells; parameters: anti-proliferative effect in NSCLC cell lines, 50% growth inhibition concentration (GI50); conditions: Homo sapiens, NCI-H460
From the text: as §1

NCI-H520 = experiment: cells; parameters: anti-proliferative effect in NSCLC cell lines, 50% growth inhibition concentration (GI50); conditions: Homo sapiens, NCI-H520; read-out: CNX-2006 GI50
From the text: as §1

NCI-H522 = experiment: cells; parameters: anti-proliferative effect in NSCLC cell lines, 50% growth inhibition concentration (GI50); conditions: Homo sapiens, NCI-H522; read-out: CNX-2006 GI50
From the text: as §1

NCI-H596 = experiment: cells; parameters: anti-proliferative effect in NSCLC cell lines, 50% growth inhibition concentration (GI50); conditions: Homo sapiens, NCI-H596
From the text: as §1

PC9 = experiment: cells; parameters: anti-proliferative effect in NSCLC cell lines, 50% growth inhibition concentration (GI50); conditions: Homo sapiens, PC-9
From the text: as §1

SKMES-1 = experiment: cells; parameters: anti-proliferative effect in NSCLC cell lines, 50% growth inhibition concentration (GI50); conditions: Homo sapiens, SK-MES-1; read-out: CNX-2006 GI50
From the text: as §1

SW1573 = experiment: cells; parameters: anti-proliferative effect in NSCLC cell lines, 50% growth inhibition concentration (GI50); conditions: Homo sapiens, SW1573
From the text: as §1

T1 sequence (O96017 whole entry): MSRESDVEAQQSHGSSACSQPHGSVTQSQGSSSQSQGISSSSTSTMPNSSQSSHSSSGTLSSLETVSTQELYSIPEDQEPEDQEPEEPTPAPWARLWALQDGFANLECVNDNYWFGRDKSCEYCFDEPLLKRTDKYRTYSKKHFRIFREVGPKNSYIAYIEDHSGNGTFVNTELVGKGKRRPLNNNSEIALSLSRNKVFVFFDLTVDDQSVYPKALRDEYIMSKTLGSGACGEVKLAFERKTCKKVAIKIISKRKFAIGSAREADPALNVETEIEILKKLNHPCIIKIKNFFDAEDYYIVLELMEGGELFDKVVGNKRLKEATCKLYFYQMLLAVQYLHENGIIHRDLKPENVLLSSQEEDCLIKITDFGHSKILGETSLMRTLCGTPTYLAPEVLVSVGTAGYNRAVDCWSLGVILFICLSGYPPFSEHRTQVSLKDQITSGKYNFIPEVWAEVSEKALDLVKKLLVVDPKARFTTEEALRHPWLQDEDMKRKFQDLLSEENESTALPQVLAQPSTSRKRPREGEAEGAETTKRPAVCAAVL

SMILES: C=CC(=O)Nc1cccc(Nc2nc(Nc3ccc(NC4CN(CCF)C4)cc3OC)ncc2C(F)(F)F)c1 [CNX-2006]
inhibition at 1 µM (WT-EGFR): > 50%
inhibition at 1 µM (Chk2): > 50%
IC50 (EGFR [1]): 55 to 104 nM
EGFR phosphorylation in transfected 293H cells (EGFR [2]): CNX-2006 effectively inhibited the phosphorylation of the receptor at low nanomolar concentrations
inhibition at 1 µM (EGFR-L858R/T790M): ~96%
IC50 (EGFR [3]): ~61 nM
GI50 (A549; read-out: CNX-2006 GI50): 2700 ± 100 nM
GI50 (Calu-1; read-out: CNX-2006 GI50): 8000 ± 300 nM
GI50 (Calu-6): 3200 ± 300 nM
GI50 (HCC-827; read-out: CNX-2006 GI50): 3 ± 2 nM
GI50 (NCI-H1299): 4500 ± 500 nM
GI50 (NCI-H1703): 4300 ± 300 nM
GI50 (NCI-H1975): 72 ± 2 nM
GI50 (NCI-H23): 2400 ± 300 nM
GI50 (NCI-H292): 340 ± 40 nM
GI50 (NCI-H3255; read-out: CNX-2006 GI50): 6 ± 2 nM
GI50 (NCI-H460; read-out: CNX-2006 GI50): 5000 ± 600 nM
GI50 (NCI-H520): 5200 ± 400 nM
GI50 (NCI-H522): 1900 ± 400 nM
GI50 (NCI-H596; read-out: CNX-2006 GI50): 4200 ± 300 nM
GI50 (PC9; read-out: CNX-2006 GI50): 9 ± 1 nM
GI50 (SKMES-1): 1400 ± 100 nM
GI50 (SW1573; read-out: CNX-2006 GI50): 1900 ± 200 nM

GI50 (A549; read-out: CO-1686 GI50): 1200 ± 200 nM
GI50 (Calu-1; read-out: CO-1686 GI50): 2000 ± 300 nM
GI50 (HCC-827; read-out: CO-1686 GI50): 2 ± 1 nM
GI50 (NCI-H3255; read-out: CO-1686 GI50): 5 ± 2 nM
GI50 (NCI-H460; read-out: CO-1686 GI50): 2300 ± 200 nM
GI50 (NCI-H596; read-out: CO-1686 GI50): 2000 ± 100 nM
GI50 (PC9; read-out: CO-1686 GI50): 4 ± 2 nM
GI50 (SW1573; read-out: CO-1686 GI50): 1100 ± 100 nM
SMILES: C=CC(=O)Nc1cccc(Nc2nc(Nc3ccc(N4CCN(C(C)=O)CC4)cc3OC)ncc2C(F)(F)F)c1 [CO-1686]
